Tested on: not given
Experiment: not given
Settings: not given

Row | Compound | melting point
1 | CN(C)Cc1cc2cc(-c3nnc(CSCCOc4ccccc4)o3)ccc2[nH]1.O=C(O)C(=O)O [Example 3, dimethyl-{5-[5-(2-phenoxy-ethylsulfanylmethyl)-[1,3,4]oxadiazol-2-yl]-1H-indol-2-ylmethyl}-amine oxalate] | 147 to 150 °C
2 | CN(C)Cc1cc2ccc(-c3nnc(CSCCOc4ccccc4)o3)cc2[nH]1 [Example 4, dimethyl-{6-[5-(2-phenoxy-ethylsulfanylmethyl)-[1,3,4]oxadiazol-2-yl]-1H-indol-2-ylmethyl}-amine] | 128 to 130 °C
3 | CN(C)Cc1cc2ccc(-c3nnc(CSCCOc4ccccc4)o3)cc2n1C.O=C(O)C(=O)O [Example 5, dimethyl-{1-methyl-6-[5-(2-phenoxy-ethylsulfanylmethyl)-[1,3,4]oxadiazol-2-yl]-1H-indol-2-ylmethyl}-amine oxalate] | 125.5 to 129 °C
4 | CN(C)Cc1c[nH]c2ccc(-c3nnc(CSCCOc4ccccc4)o3)cc12.O=C(O)C(=O)O [Example 6, dimethyl-{5-[5-(2-phenoxy-ethylsulfanylmethyl)-[1,3,4]oxadiazol-2-yl]-1H-indol-3-ylmethyl}-amine oxalate] | 159 to 163 °C
5 | CN(C)Cc1c[nH]c2cc(-c3nnc(CSCCOc4ccccc4)o3)ccc12.O=C(O)/C=C\C(=O)O [Example 7, Dimethyl-{6-[5-(2-phenoxy-ethylsulfanylmethyl)-[1,3,4]oxadiazol-2-yl]-1H-indol-3-ylmethyl}-amine maleate] | 127 to 129 °C
6 | CN(C)Cc1cn(C)c2ccc(-c3nnc(CSCCOc4ccccc4)o3)cc12.O=C(O)C(=O)O [Example 8, dimethyl-{1-methyl-5-[5-(2-phenoxy-ethylsulfanylmethyl) -[1,3,4]oxadiazol-2-yl]-1H-indol-3-ylmethyl}-amine oxalate] | 151 to 154 °C

More lines, now with the values ahead:

Row | melting point | Compound
7 | 95 to 96 °C | CN(C)Cc1ccc2cc(-c3nnc(CSCCOc4ccccc4)o3)ccc2c1 [Example 11, Dimethyl-{6-[5-(2-phenoxy-ethylsulfanylmethyl)-[1,3,4]oxadiazol-2-yl]-naphthalen-2-ylmethyl}-amine]
8 | 133 to 135 °C | O=C(O)/C=C\C(=O)O.c1ccc(OCCSCc2nnc(-c3ccc4cc(CN5CCCC5)ccc4c3)o2)cc1 [Example 12, 2-(2-Phenoxy-ethylsulfanylmethyl)-5-(6-pyrrolidin-1-ylmethyl-naphthalen-2-yl)-[1,3,4]oxadiazole maleate]
9 | 93 to 94 °C | c1ccc(OCCSCc2nnc(-c3ccc4cc(CN5CCCCC5)ccc4c3)o2)cc1 [Example 13, 1 -{6-[5-(2-phenoxy-ethylsulfanylmethyl)-[1,3,4]oxadiazol-2-yl]-naphthalen-2-ylmethyl}-piperidine]

Biological target: T1, human MCHR1 (Homo sapiens, UniProt Q99705)
T1 construct: The full-length cDNA for human MCHR1 was cloned; expressed in transfected cells; host or cells: AV12 cells previously transfected with the promiscuous G protein G(alpha)15; membranes
Experiment: inhibition of MCH-stimulated GTPγ35S binding to clone 43 membranes (functional antagonism)
Format: biochemical
Settings: 40 nM MCH-stimulated GTPγ35S binding, Kb from IC50 by modified Cheng-Prusoff (Leff and Dougal), tested in duplicate
Experimental: (§1) The full-length cDNA for human MCHR1 was cloned from a human adult brain cDNA library (Edge Biosystems, Cat. 38356) by standard polymerase chain reaction (PCR) methodology employing the following primers: sense, 5′-GCCACCATGGACCT GGAAGCCTCGCTGC-3′; anti-sense, 5′-[…]-3′. The PCR reaction was performed in a final volume of 50 μl containing 5 μl of a 10× stock solution of PCR buffer, 1 μl of 10 mM dNTP mixture (200 μM final), 2 μl of 50 mM Mg(SO4) (2 mM final), 0.5 μl of 20 μM solutions of each primer (0.2 μM final), 5 μl of template cDNA containing 0.5 ng DNA, 0.5 μl of Platinum Taq High Fidelity DNA polymerase (Gibco Life Technologies) and 36 μl of H2O. PCR amplification was performed on a Perkin Elmer 9600 thermocycler. After denaturation for 90 sec at 94° C., the amplification sequence consisting of 94° C. for 25 sec, 55° C. for 25 sec and 72° C. for 2 min was repeated 30 times, followed by a final elongation step at 72° C. for 10 min. The desired PCR product (1.1 Kb) was confirmed by agarose gel electrophoresis and the band was extracted from the gel by Geneclean (Bio101) following the manufacturer's instructions. Following extraction, the cDNA fragment was cloned into pCR2.1-TOPO plasmid (Invitrogen) to confirm the identity and sequence.
In order to generate cell lines stably expressing MCHR1, the insert was then subcloned into the Xba I and Not I sites of pcDNA(+)-3.1-neomycin (Invitrogen). After purification by Qiagen Maxi-prep kit (QIAGEN, Inc.), the plasmid was transfected by Fugene 6 (Roche Applied Science) into AV12 cells that had been previously transfected with the promiscuous G protein G[…]15. The transfected cells were selected by G418 (800 μg/ml) for. 10-14 days and single colonies were isolated from culture plates. The G418-resistant colonies were further selected for MCHR1 expression by measuring MCH-stimulated Ca^2+ transients with a fluorometric imaging plate reader (FLIPR, Molecular Devices). […]
Functional antagonism of MCH activity is assessed by measuring the ability of test compound to inhibit MCH-stimulated binding of GTPγ^35S to clone 43 membranes. […]

T1 sequence (Q99705 whole entry): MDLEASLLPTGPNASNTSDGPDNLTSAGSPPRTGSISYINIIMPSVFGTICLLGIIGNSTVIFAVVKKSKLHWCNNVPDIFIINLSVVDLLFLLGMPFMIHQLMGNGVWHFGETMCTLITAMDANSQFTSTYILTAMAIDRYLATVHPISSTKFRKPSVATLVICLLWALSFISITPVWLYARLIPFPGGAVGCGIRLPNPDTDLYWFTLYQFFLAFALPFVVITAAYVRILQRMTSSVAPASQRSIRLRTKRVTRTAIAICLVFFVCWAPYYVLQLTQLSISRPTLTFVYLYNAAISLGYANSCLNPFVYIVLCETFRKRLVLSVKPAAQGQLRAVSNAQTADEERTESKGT

Row | Kb | Compound
10 | 7 nM | c1ccc(OCCSCc2nnc(-c3ccc4cc(CN5CCCC5)ccc4c3)o2)cc1
11 | 11.8 nM | CN(C)Cc1ccc2cc(-c3nnc(CSCCOc4ccccc4)o3)ccc2c1 [drawing 44]
12 | 58.4 nM | c1ccc(OCCSCc2nnc(-c3ccc4cc(CN5CCCCC5)ccc4c3)o2)cc1 [drawing 47]

Biological target: T1, human MCHR1
Experiment: competitive 125I-MCH binding assay with clone 43 membranes (SPA)
Settings: 125I-MCH (100 pM) displacement, Ki from IC50 by Cheng-Prusoff, tested in duplicate
Experimental: as §1
In order to generate cell lines stably expressing MCHR1, the insert was then subcloned into the Xba I and Not I sites of pcDNA(+)-3.1-neomycin (Invitrogen). After purification by Qiagen Maxi-prep kit (QIAGEN, Inc.), the plasmid was transfected by Fugene 6 (Roche Applied Science) into AV12 cells that had been previously transfected with the promiscuous G protein G[…]15. The transfected cells were selected by G418 (800 μg/ml) for. 10-14 days and single colonies were isolated from culture plates. The G418-resistant colonies were further selected for MCHR1 expression by measuring MCH-stimulated Ca^2+ transients with a fluorometric imaging plate reader (FLIPR, Molecular Devices).
Both the ^125I-MCH binding and functional GTPγ^35S binding assays employed membranes isolated from a clone designated as clone 43. Typically, cells from 20 confluent T225 flasks were processed by washing the monolayers in cold phosphate-buffered saline (PBS), scraping the cells into same and re-suspending the cell pellet in 35 ml of 250 mM Sucrose, 50 mM HEPES, pH 7.5, 1 mM MgCl2, 24 μg/ml DNase I, and protease inhibitors (1 Complete® tablet, per 50 ml of buffer prepared, Roche Diagnostics). After incubation on ice for 5 min, cells were disrupted with 20-25 strokes of a Teflon/Glass homogenizer attached to an overhead motorized stirrer, and the homogenate was centrifuged at 40,000 rpm in Beckman Type 70.1 Ti rotor. The pellets were re-suspended in 250 mM Sucrose, 50 mM HEPES, pH 7.5, 1.5 mM CaCl2, 1 mM MgSO4 and protease inhibitors by Teflon/Glass homogenization to achieve a protein concentration of ˜3-5 mg/ml (Pierce BCA assay with Bovine serum albumin as standard). Aliquots were stored at −70° C.
Binding of compounds to MCHR1 was assessed in a competitive binding assay employing ^125I-MCH, compound and clone 43 membranes. Briefly, assays are carried out in 96-well Costar 3632 white opaque plates in a total volume of 200 μl containing 25 mM HEPES, pH 7.5, 10 mM CaCl2, 2 mg/ml bovine serum albumin, 0.5% dimethyl sulfoxide (DMSO), 4 μg of clone 43 membranes, 100 pM ^125I-MCH (NEN), 1.0 mg of wheat germ agglutinin scintillation proximity assay beads (WGA-SPA beads, Amersham) and a graded dose of test compound. Non-specific binding is assessed in the presence of 1 μM unlabeled MCH. Bound ^125I-MCH is determined by placing sealed plates in a Microbeta Trilux (Wallac) and counting after a 5 hr delay.
IC50 values (defined as the concentration of test compound required to reduce specific binding of ^125I-MCH by 50%) are determined by fitting the concentration-response data to a 4-parameter model (max response, min response, Hill coefficient, IC50) using Excel. […]

Row | Compound | Ki
13 | CN(C)Cc1cc2cc(-c3nnc(CSCCOc4ccccc4)o3)ccc2[nH]1 | 190 nM
14 | CN(C)Cc1c[nH]c2cc(-c3nnc(CSCCOc4ccccc4)o3)ccc12 | 682 nM
15 | CN(C)Cc1cn(C)c2ccc(-c3nnc(CSCCOc4ccccc4)o3)cc12 | 11100 nM
16 | CN(C)Cc1cc2ccc(-c3nnc(CSCCOc4ccccc4)o3)cc2o1 [drawing 39] | 372 nM
17 | CN(C)Cc1cc2ccc(-c3nnc(CSCCOc4ccccc4)o3)cc2o1 [drawing 41] | 383 nM
18 | CN(C)Cc1cc2cc(-c3nnc(CSCCOc4ccccc4)o3)ccc2o1 [drawing 50] | 235 nM
19 | CN(C)Cc1cc2cc(-c3nnc(CSCCOc4ccccc4)o3)ccc2o1 [drawing 52] | 153 nM
20 | CN(C)Cc1cc2ccc(-c3nnc(CSCCOc4ccccc4)o3)cc2[nH]1 [drawing 54] | 34.6 nM

Now from value to compound:

Row | Ki | Compound
21 | 1070 nM | O=C1c2ccc(-c3nnc(CSCCOc4ccccc4)o3)cc2CN1CCN1CCCCC1
22 | 2000 nM | O=C1c2cc(-c3nnc(CSCCOc4ccccc4)o3)ccc2CN1CCN1CCCCC1
23 | 7.3 nM | c1ccc(OCCSCc2nnc(-c3ccc4cc(CN5CCCC5)ccc4c3)o2)cc1
24 | 8.2 nM | CN(C)Cc1ccc2cc(-c3nnc(CSCCOc4ccccc4)o3)ccc2c1 [drawing 44]
25 | 17.6 nM | c1ccc(OCCSCc2nnc(-c3ccc4cc(CN5CCCCC5)ccc4c3)o2)cc1 [drawing 47]

Source: US20070135485A1, “Novel mch receptor antagonists” (priority 2003, published 2007)
